# In patent US20210214359A1, “Compounds and Methods for Treating Bacterial Infections” (NEW YORK UNIVERSITY, priority 2018, published 2021):
# Assays:
# [1] = test system: S. aureus RN4220; assay: growth inhibition assay in liquid culture, potentiation of gentamicin (Gm); format: cell-based; conditions: compound at 0.375 μg/mL
# Source text: The compounds of the invention were screened in a growth inhibition assay in liquid culture of nonpathogenic S. aureus RN4220 to directly test whether a hit compound can potentiate the action of gentamicin (Gm) added at ≤10% the minimal inhibitory concentration (MIC). Gentamicin is a ribosome-targeting bactericidal antibiotic induces oxidative stress and is effective against MRSA strains. Although gentamicin is not a first-line antibiotic for monotherapy of staphylococcal infection, it is used in combination with vancomycin or β-lactams to treat serious infections, such as endocarditis.
# The MIC results for the remaining compounds of the disclosure are provided in Table 2. % MIC activity of 51-100 is labeled “+”, % MIC activity of 21-50 is labeled “++”, and % MIC activity of ≤20 is labeled “+++”.
# [2] = molecular target: T1, S. aureus CSE (Staphylococcus aureus, UniProt A0A0H3K724); assay: H2S produced by purified CSE in vitro; format: biochemical; conditions: read-out: IC50, reduction of enzymatic activity (H2S produced by purified CSE)
# Experimental: (§1) The amount of H2S produced by purified CSE was measured in the presence of the compound of Ex. 80 and found strong reduction of enzymatic activity with IC50 about 100 nM (FIG. 2B). This IC50 values are 10- to 400-fold lower than those determined for conventional CSE inhibitors and correlates well with its binding affinity, KD, as determined by MicroScale Thermophoresis (MST) (FIG. 2C).
# [3] = test system: HeLa cells; assay: cytotoxicity in HeLa cells using a different assay; format: cell-based
# [4] = test system: methicillin-resistant USA300 strain; assay: growth inhibition test in combination with methicillin; format: cell-based, S. aureus; conditions: for bacterial growth, agent alone: single agent
# Experimental: (§2) FIG. 3 illustrates inhibition of culture growth of drug-resistant S. aureus by (A) the compound of Ex. 80 (GO-0001197; labeled as #9077) (30 μM) and 50% MIC of methicillin (Met) in methicillin-resistant USA300 strain; or by (B) the compound of Ex. 80 (30 μM) and 50% MIC of vancomycin (Van) in vancomycin-resistant RN10659 strain.
# (§3) Because H2S inhibitors dramatically reduce the effective dose of antibiotics, they may potentiate or augment the activity of antibiotics in the strains that acquired resistance to these antibiotics. The compound of Ex. 80 (GO-0001197) was evaluated with two clinically relevant antibiotics, methicillin and vancomycin, which have different mechanisms of resistance.
# [5] = test system: human BJ cell line; assay: IncuCyte Cytotoxicity Assay; format: cell-based
# Experimental: To determine toxicity of the compounds of the disclosure, an IncuCyte™ Cytotoxicity Assay (Essen BioScience) in the human BJ cell line was conducted. Cell cultures were supplemented with a chemical probe which entered the cell and labeled nuclei green fluorescence as cells die and membrane integrity is lost. Nuclei of live cells were labeled with red fluorescence. […] This cytotoxic concentration was over 50-fold higher than the optimal concentration of the compound of Ex. 80 for bacterial growth inhibition in liquid culture in combination with 10% MIC of gentamicin. Therefore, the compounds of the disclosure show low cytotoxicity in human cell lines and present desirable targets for the development of compositions for treating bacterial infections.
# [6] = test system: vancomycin-resistant RN10659 strain; assay: growth inhibition test in combination with vancomycin; format: cell-based, S. aureus; conditions: for bacterial growth, agent alone: single agent
# Experimental: as §2, §3
# [7] = molecular target: T1, S. aureus CSE; assay: binding to CSE by MicroScale Thermophoresis (MST)
# Experimental: as §1
# T1 sequence (A0A0H3K724 entry or part of it): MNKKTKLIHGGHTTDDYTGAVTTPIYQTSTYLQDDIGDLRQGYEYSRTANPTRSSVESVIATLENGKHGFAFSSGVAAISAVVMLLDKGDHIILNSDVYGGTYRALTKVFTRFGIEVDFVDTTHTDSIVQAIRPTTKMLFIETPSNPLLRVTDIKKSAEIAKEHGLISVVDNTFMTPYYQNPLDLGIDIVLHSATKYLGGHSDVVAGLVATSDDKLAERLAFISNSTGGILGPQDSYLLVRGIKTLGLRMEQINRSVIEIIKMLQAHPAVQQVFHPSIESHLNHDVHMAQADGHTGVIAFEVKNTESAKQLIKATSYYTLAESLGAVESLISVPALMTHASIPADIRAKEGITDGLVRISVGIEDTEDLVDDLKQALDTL
structure (smiles),measurement,setting,value
"O=C(O)c1cc(Cn2ccc3ccc(-c4cc5cccc(Cl)c5s4)cc32)[nH]n1 [Example 68, 5-{[6-(7-chloro-1-benzothiophen-2-yl)-1H-indol-1-yl]methyl}-1H-pyrazole-3-carboxylic acid]",% MIC at 0.375 μg/mL,[1],10 (% MIC at 0.375 μg/mL)
"O=C(O)CNC(=O)Cn1ccc2ccc(Br)cc21 [Example 80, (2-(6-bromo-1H-indol-1-yl)acetyl)glycine]",IC50,[2],~0.1 µM
same,cytotoxic concentration,[3],~400 µM
same,bacterial growth in co-treatment with methicillin,[4]; Ex. 80 10 μg/mL + methicillin 5 μg/mL,inhibition of bacterial growth
same,"bacterial growth, agent alone",[4],did not affect bacterial growth
same,concentration at which more than a half of the cells died,[5]; human,"1,250 μM"
same,concentration at which practically all cells died,[5]; human,"2,500 μM"
same,concentration at which the compound becomes toxic to cells (conservative estimation),[5]; human,~500 µM
same,concentration at which the number of dead cells started to increase,[5]; human,625 µM
same,cytotoxic concentration fold higher than optimal concentration for bacterial growth inhibition,[5]; versus liquid culture with 10% MIC of gentamicin,over 50 fold
same,bacterial growth in co-treatment with vancomycin,[6]; Ex. 80 10 μg/mL + vancomycin 2 μg/mL,inhibition of bacterial growth
same,"bacterial growth, agent alone",[6],did not affect bacterial growth
"C#CCC(N)C(=O)O (stereo not shown) [PAG, propargylglycine]",Kd,[7],~90 µM
same,fold higher KD than Ex. 80,"[7]; MST, CSE",225 fold
"COc1cccc(OC)c1C(=O)N[C@@H]1C(=O)N2[C@@H]1SC(C)(C)[C@@H]2C(=O)O [methicillin, reference compound]","bacterial growth, agent alone",[4],only slowed down growth
"CN[C@H](CC(C)C)C(=O)N[C@H]1C(=O)N[C@@H](CC(N)=O)C(=O)N[C@H]2C(=O)N[C@H]3C(=O)N[C@H](C(=O)N[C@H](C(=O)O)c4cc(O)cc(O)c4-c4cc3ccc4O)[C@H](O)c3ccc(c(Cl)c3)Oc3cc2cc(c3O[C@@H]2O[C@H](CO)[C@@H](O)[C@H](O)[C@H]2O[C@H]2C[C@](C)(N)[C@H](O)[C@H](C)O2)Oc2ccc(cc2Cl)[C@H]1O [vancomycin, reference compound]","bacterial growth, agent alone",[6],only slowed down growth
